Paper PMC9704608, “Anti-leishmanial physalins—Phytochemical investigation, in vitro evaluation against clinical and MIL-resistant L. tropica strains and in silico studies” (PLOS ONE, 2022)
Read-outs that look alike come from different tables or passages of the source.

Key:
L. major promastigotes = experiment: Promastigote growth inhibition assay (MTT), L. major; format: cell-based, Leishmania major; details: for IC50: Leishmania major; for IC50 / L. major IC50 (μM± SD): 72 h; for anti-leishmanial activity against promastigotes of L. major (in words): in vitro
Description: (§1) L. major and L. tropica (Clinical isolates) promastigotes were grown at […] in RPMI-1640 (Sigma) medium containing 10% of heat-inactivated (56°C for 30 min) fetal bovine serum. Cell viability was initially evaluated by wet mount method by observing the live cells under compound microscope. Parasite growth was assessed by counting live / motile promastigotes in a Neubauer chamber. Viable cell count was used for the further experimentations (treatments).
(§2) The promastigotes in their log phase were used in 96-well plates. 1 × 10^6 wild-type and resistant promastigotes were dispensed in 96 96-well plates, and incubated with tested compounds at a range concentration of 200–10 μM at 27°C for 72 h. After incubation of 72 h, MTT dye (3-(4,5-dimethylthiazol-2-yl)-2,5-diphenyl-2H-tetrazolium bromide) was added and further incubate it for 3–4 h. Amphotericin B, pantamidine and miltefosine were used as the positive control, untreated promastigotes were used as negative control moreover DMSO control was also added in the study as a stock solution of the compounds that were prepared in DMSO. All the experiments were performed in triplicates. After completion of the experiment the absorbance by Multiskan ascent plate reader at 452 nm and percent inhibition was calculated by the following formula.
(§3) Cytotoxic concentration (%) = [100- (Absorbance of test)/ (Absorbance of solvent control) ×100] %.

[1] = tested on: 3T3 (mouse fibroblast) cells; experiment: Cytotoxicity (MTT) against 3T3 cell line; format: cell-based; details: for 3T3 Cell line CC50 (μM± SD): pure compounds, mouse fibroblast, 48 h
Description: (§4) The cytotoxicity of the test compounds against normal cell lines was evaluated through MTT (3-[4, 5-dimethylthiazole-2-yl]-2, 5-diphenyl-tetrazolium bromide] colorimetric assay in 96-well flat-bottomed microplates. The 3T3 (mouse fibroblast) and BJ (human fibroblast) were cultured Dulbecco’s Modified Eagle Medium, supplemented with 5% of fetal bovine serum (FBS), 100 IU/mL of penicillin and 100 μg/mL of streptomycin in 75 cm2 flasks, and then incubated in 5% CO2 incubator at 37°C. The growing cells were counted by using a haemocytometer, and diluted with the particular medium. The 5x10^4 cells/mL of the cell culture was prepared, and a sample […] was introduced into each well. The medium was removed after overnight incubation, and 200 μL of fresh medium was added with different concentrations of compounds (1–30 μM). After 48 hours, 200 μL MTT (0.5 mg/mL) was added, and the incubation was further continued for 4 hrs. After that time, 100 μL of DMSO was added to each well. The absorbance was measured using a micro plate reader (Spectra Max Plus, Molecular Devices, CA, USA) at 570 nm for the extent of MTT reduction to formazan within the cells. The cytotoxicity was recorded as CC50 against cells by using Soft- Max Pro software. Doxorubicin and cycloheximide were used as positive control. The experiments were run in triplicate.

[2] = Cytotoxicity (MTT) against 3T3 cell line; format: cell-based, mouse; details: pure compounds; mouse fibroblast, 48 h; read-out: 3T3 Cell line CC50 (μM± SD)
Description: as §4

L. tropica promastigotes = experiment: Promastigote growth inhibition assay (MTT), L. tropica clinical isolates; format: cell-based, Leishmania tropica; details: for IC50: Leishmania tropica
Description: as §1, §2, §3

[3] = Cytotoxicity (MTT) against BJ cell line; format: cell-based, human; details: pure compounds; human fibroblast, 48 h; read-out: BJ cell line CC50 (μM± SD)
Description: as §4, with “The medium was removed after overnight incubation, and 200 μL of fresh medium was added with different concentrations of compounds (1–30 μM).” left out

[4] = tested on: BJ (human fibroblast) cells; experiment: Cytotoxicity (MTT) against BJ cell line; format: cell-based
Description: as §4, with “The medium was removed after overnight incubation, and 200 μL of fresh medium was added with different concentrations of compounds (1–30 μM).” left out

[5] = tested on: MIL-resistant L. tropica promastigotes; experiment: Growth inhibition assay (MTT) against MIL-resistant line; format: cell-based, Leishmania tropica; details: 72 h; for MIL Resistant L. tropica IC50 (μM± SD): miltefosine-unresponsive strain, promastigotes
Description: as §2, §3
Promastigote cultures tL. tropica (Clinical isolates) were maintained at 26°C in RPMI-1640 medium containing 15% FBS and 1% penicillin–streptomycin mixture.
Generation of miltefosine-unresponsive strain was carried under high MIL pressure by in vitro passage with a stepwise increase in the MIL concentration. At each step, parasites were cultured and passaged every 3–4 days at an initial concentration of 5x10^5 promastigotes/mL in order to achieve -stable growth as compared to the wildtype isolate. Growth rates were measured for resistant populations and compared with the WT strain. Parasites were counted at an initial concentration of 5x10^5 parasites/mL and growth was measured daily using a Neubauer chamber until the population reached the stationary phase. Furthermore, the fluorescence microscopic investigations via DAPI stain were also carried out to supplement the study.

[6] = pure compounds, standard drugs, promastigotes, read-out: L. major IC50 (μM± SD)
[7] = pure compounds, standard drugs, promastigotes, clinical isolate, 72 h, read-out: L. tropica IC50 (μM± SD)
[8] = 72 h, read-out: L. tropica IC50 (μM± SD)
[9] = pure compounds, standard drugs, promastigotes
[10] = extracts, fractions, standard drugs, promastigotes, read-out: L. major IC50 (μg/ml ± SD)
[11] = extracts, fractions, standard drugs, promastigotes, 72 h, read-out: L. tropica IC50 (μg/ml ± SD)

SMILES | IC50 (L. major promastigotes; [6]) [µM] | IC50 (L. tropica promastigotes; [7]) [µM] | CC50 [3] [µM] | MIL Resistant L. tropica IC50 (μM± SD) [5] | anti-leishmanial activity against promastigotes of L. major (in words) (L. major promastigotes) | 3T3 (mouse fibroblast) IC50 (μM ± SD) ([1]; cytotoxicity of compounds 1-9) | 3T3 Cell line CC50 (μM± SD) [1] | IC50 (L. tropica promastigotes; [8]) [µM] | CC50 at 48 h [3] [µM] | BJ (human fibroblast) IC50 (μM± SD) ([4]; cytotoxicity of compounds 1-9) | L. major IC50 (μM± SD) (L. major promastigotes; [9]) | IC50 (L. major promastigotes; [10]) [µg/mL] | IC50 (L. tropica promastigotes; [11]) [µg/mL] | further results
CC12CC3OC(=O)C1COC14OC5(C2C1=O)C(O)(CCC1C4CC(O)C2(Cl)CC=CC(=O)C12C)C(=O)OC35C (stereo not shown) [Compound 5, Physalin H] | 3.34 ± 0.64 | 9.59 ± 0.27 | 10.4 ± 1 | inactive |  |  |  |  |  |  |  |  |  | L. major SI (CC50/ IC50) (L. major promastigotes; CC50 3T3 mouse fibroblast cell line / IC50 L. major): 0.119; L. major SI (CC50/ IC50) (L. major promastigotes; CC50 BJ fibroblast cell line / IC50 L. major): 3.11; L. tropica SI (CC50/ IC50) ([1]; CC50 3T3 cell line / IC50 L. tropica): 0.041; IC50 ([1]; Mus musculus, Fibroblast, cytotoxicity of compounds 1-9, read-out: 3T3 (mouse fibroblast) IC50 (μM ± SD)): 0.4 ± 0.07 µM; CC50 [2]: 0.4 ± 0.07 µM; L. tropica SI (CC50/ IC50) (L. tropica promastigotes; CC50 3T3 mouse fibroblast cell line / IC50 L. tropica): 0.041; L. tropica SI (CC50/ IC50) (L. tropica promastigotes; CC50 BJ fibroblast cell line / IC50 L. tropica): 1.08; L. tropica SI (CC50/ IC50) ([4]; CC50 BJ cell line / IC50 L. tropica): 1.08; IC50 ([4]; Homo sapiens, Fibroblast, cytotoxicity of compounds 1-9, read-out: BJ (human fibroblast) IC50 (μM± SD)): 14.2 ± 0.8 µM
C[C@]12C(=O)C=CC=C1[C@@H](O)C[C@@H]1[C@@H]2CC[C@@]2(O)C(=O)O[C@@]3(C)[C@H]4C[C@]5(C)[C@@H](CO[C@@]16O[C@]23[C@H]5C6=O)C(=O)O4 [Compound 7, Physalin G] |  |  |  |  | no significant activity | Non cytotoxic | Non cytotoxic | 19.49 ± 0.02 | > 100 | Non cytotoxic |  |  |  | IC50 (L. major promastigotes; read-out: L. major IC50 (μM± SD)): 52.3 ± 1.18 µM; IC50 ([5]; Leishmania tropica, read-out: MIL Resistant L. tropica IC50 (μM± SD)): 39.4 ± 0.65 µM
CC12CC3OC(=O)C1COC14OC5(C2C1=O)C(O)(CC(O)C1C4CC(O)C24C=CC(OO2)C(=O)C14C)C(=O)OC35C (stereo not shown) [Compound 8, Physalin K] |  |  | > 100 | inactive | no significant activity | Non cytotoxic | Non cytotoxic |  |  | Non cytotoxic | inactive |  |  | L. tropica IC50 (μM± SD) (L. tropica promastigotes; pure compounds, standard drugs, promastigotes, clinical isolate, 72 h): inactive
C[C@@]12C[C@H]3OC(=O)[C@@H]1CO[C@@]14O[C@]5([C@H]2C1=O)[C@@](O)(CC[C@H]1[C@H]4C[C@@H](O)[C@@]2(O)CC=CC(=O)[C@]12C)C(=O)O[C@@]35C [Compound 9, Physalin D] |  |  |  | inactive | no significant activity | Non cytotoxic | Non cytotoxic | 55.24 ± 0.01 | > 100 | Non cytotoxic | inactive |  |  | 
CCCCCCCCCCCCCCCCOP(=O)([O-])OCC[N+](C)(C)C [Miltefosine, reference compound] | 25.6 ± 1.03 | 42.8 ± 1.03 |  |  |  |  |  |  |  |  |  | 10.4 ± 0.42 | 17.4 ± 0.42 | BJ cell line CC50 (μM± SD) ([4]; pure compounds, human fibroblast, 48 h): non-toxic
N=C(N)c1ccc(OCCCCCOc2ccc(C(=N)N)cc2)cc1 [Pentamidine, reference compound] | 27.2 ± 0.015 | 27.2 ± 0.01 |  |  |  |  |  |  |  |  |  | 9.25 ± 0.005 | 9.25 ± 0.005 | 
